Test results: paper PMC11468294, “Peptide Amphiphiles as Biodegradable Adjuvants for Efficient Retroviral Gene Delivery” (Advanced Healthcare Materials, 2023)
Where a SMILES comes first, the peptide text is derived from it. The star is where a group is joined. Palmitoyl = CCCCCCCCCCCCCCCC(=O)*

Columns and labels:
[1] = Zeta-potential measurement; type: physicochemical; settings: fibrils 1 mg mL-1 in PBS, 60 µL diluted in 600 µL 1 mM KCl; triplicates
Method: Zeta‐potential: 60 µL of the peptides (1 mg mL^−1) were diluted in 600 µL, 1 mM KCl solution and placed in a disposable folded capillary cuvette. All zeta‐potential measurements (Zetasizer, Malvern Instruments) were conducted in triplicates for each sample.

HeLa cells = assay: Cell-PA interaction by confocal laser scanning microscopy; type: cell-based; settings: peptide 20 µg mL-1 added for 30 min, washed, Proteostat stain
Method: Confocal laser scanning microscopy and degradation study with PA1‐3 and HeLa cells: HeLa cells were seeded one day prior to conducting the assay (40000/well) in an 8‐well IBIDI slide. 4 µL of the preformed peptide fibrils (1 mg mL^−1) were diluted with 4 µL Proteostat (Enzo Life Science, 1 µL stock in 999 µL PBS) and incubated for 10 min and further diluted with medium to receive a final peptide concentration of 20 µg mL^−1. The nucleus of the HeLa cells was stained with Hoechst 33 342 (NucBlue, Thermo Fisher Scientific). The peptide solution was transferred to the HeLa cells and incubated for 30 min at 37°C before washing three times with PBS. The interaction of fibril clusters with cells was monitored after 30 min incubation time on a Stellaris 8 confocal laser scanning microscope (Leica) equipped with a 20x air objective and laser excitation wavelengths of 405 nm (Hoechst) and 561 nm (Proteostat). For the evaluation of aggregate degradation, the samples were further incubated at 37°C for 3 d and analyzed without any additional washing step. The evaluation of aggregate size and number was conducted by analyzing Proteostat stained aggregates via the 3D objects counter function of ImageJ 1.53f51 for 3 individual measurements (area 581.25 µm × 581.25 µm). […] The number of aggregates larger than 10 µm^2 were counted via the 3D objects counter function of ImageJ 1.53f51. The mean number and standard deviations were determined by averaging at least three technical triplicates.
Figure S6 Laser scanning microscopy micrographs of A cells only (control), and Proteostat-stained (red) peptides B EF-
C ([…]), C PA1, D PA2, E PA3, F P1, G P2, H P3 added to HeLa cells (nucleus in blue). The peptides (20 µg mL-
1) were added to cells for 30 min, washed and analyzed. […]

CD4+ T cells = type: cell-based, Human; settings: 0.26, 1.3, 6.5 µM, 3 days; LIVE/DEAD Fixable Aqua stain
Method: γ‐Retroviral transduction Assay CD4+ T cells: Human CD4+ T cells were isolated from a Buffy coat using RosetteSep Human CD4+ Enrichment Cocktail ([…] Technologies) according to manufacturer's protocol. Isolated T cells were activated using Dynabeads Human T‐Activator CD3/CD28 (GibcoTM) according to manufacturer's protocol in presence of 10 ng mL^−1 IL‐2 (Miltenyi Biotec) for three days. After 3 days the magnetic Dynabeads were removed using a magnet and T cells were cultured in presence of 9 ng mL^−1 IL‐7 (Miltenyi Biotec) and 10 ng mL^−1 IL‐15 (Miltenyi Biotec). After 1 day 5 × 10^5 T cells were transduced with GALV‐γ‐RV in absence and presence of PA1, PA2, EF‐C (0.26, 1.3 and 6.5 µM) and Vectofusin−1 (10 µg mL^−1; Miltenyi Biotec), or RetroNectin (20 µg mL^−1; Takara Bio). […] After 3 days GFP+ T cells were analyzed by flow cytometry. Viability was determined using LIVE/DEAD Fixable Aqua Dead Cell Stain Kit (ThermoFisher Scientific) according to manufacturer's protocol. […]
Figure S7 Viability of CD4+ T cells. […] Dead cells were initially eliminated by gating on viability dye-negative cells (SSC-A vs. Fixable Aqua Fluorescence) and afterwards for singlets (FSC-H vs. FSC-A). GFP+ cells were measured using the FITC channel. […]

[2] = ATR-FT-IR β-sheet content; type: physicochemical; settings: ATR-IR of lyophilized fibril solutions (1 mg mL-1, PBS); peak integration at 1630 cm-1 in 2nd derivative of amide I region
Method: ATR‐FT‐IR: ATR‐IR spectra acquisition and the calculation of β−sheet content were conducted according to a previous report.^[ [20] ^] Briefly, FT‐IR spectra of solid samples were recorded after lyophilization of fibril solutions using a Bruker Tensor II spectrometer equipped with a diamond crystal as ATR element with a spectral resolution of 2 cm–1, each spectrum was an average of 64 scans. The data was processed with Origin software. β−sheet amount was determined by calculating the integral of the peak at 1630 cm^−1 (β‐sheet) relative to the integral between 1650–1700 cm^−1 (native structure) from the 2nd derivative of the FT‐IR spectra.

[3] = test system: HIV-1 infection of TZM-bl cells; assay: HIV-1 infection assay (β-galactosidase luminescence reporter); type: cell-based; settings: infectivity enhancing if n-fold at 1.3 µM larger than 2
In short: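 TZM-bl cells (10000 per well) were seeded one day before infection. Peptide nanofibril solution was mixed 1:1 (v/v) with HIV-1 (1:500 dilution) for 10 min before inoculation. Infection was read as β-galactosidase luminescence, in technical triplicates across three independent experiments.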

Molecule	Zeta-Potential [1]	association with cellular membranes (HeLa cells)	viability of CD4+ T cells (CD4+ T cells)	β-sheet content [2] [%]	infectivity enhancement of HIV-1 (in words) [3]
C16-VVVAAAKKK-NH2 [PA1]	+22.2 ± 0.7 mV	association with cellular membranes	did not reduce the viability	57	strong infectivity enhancement of HIV‐1 in the range of EF‐C
CCCCCCCCCCCCCCCC(=O)N[C@@H](Cc1ccccc1)C(=O)N[C@@H](CCC(N)=O)C(=O)N[C@@H](Cc1ccccc1)C(=O)N[C@@H](CCCCN)C(=O)N[C@@H](Cc1ccccc1)C(=O)N[C@@H](CCCCN)C(=O)N[C@@H](CS)C(N)=O [PA2] (Palmitoyl-FQFKFKC-NH2)	+19.2 ± 3.4 mV	association with cellular membranes	did not reduce the viability	59	strong infectivity enhancement of HIV‐1 in the range of EF‐C
